The values below come from patent US4046904A, “Novel penicillin, and its preparation and use” (Sumitomo Chemical Company, Limited, priority 1975, dated 1977).

The subject of one series is Pseudomonas. The conditions noted are these: background statement; cited from earlier work.
A further series relates to Proteus vulgaris. Put plainly: Median MIC, clinical isolates, agar-plate dilution (Table 1). It is filed as cell-based. The conditions noted are these: 7 clinical isolates, sodium salt, read-out: Median minimum inhibitory concentration. The protocol: (§1) Note: Compound (I) and Compound (A) were subjected to the test in the form of the sodium salt. The minimum inhibitory concentration (MIC) was determined using the agar-plate dilution method recommended by Japan Society of Chemotherapy.

The test system of the next series is Proteus morganii. Described as above. In kind it is cell-based. The conditions noted are these: Morganella morganii, 14 clinical isolates, sodium salt, read-out: Median minimum inhibitory concentration. The protocol:
as §1

Series [1] concerns Staphylococcus aureus. Described as above. In kind it is cell-based. The note with it: 37 clinical isolates, sodium salt, read-out: Median minimum inhibitory concentration. The protocol: as §1
Series [2] deals with Klebsiella pneumoniae. The series is described as above. The note with it: 26 clinical isolates, sodium salt, read-out: Median minimum inhibitory concentration. In kind it is cell-based. The protocol: as §1
The next series relates to Escherichia. The series is described as above. In kind it is cell-based. The note with it: read-out: Median minimum inhibitory concentration. The protocol: as §1
A further series relates to Enterobacter aerogenes. Described as above. It is filed as cell-based. The note with it: Klebsiella aerogenes, 8 clinical isolates, sodium salt, read-out: Median minimum inhibitory concentration. The protocol: as §1
Another series concerns Serratia. Described as above. In kind it is cell-based. The note with it: 6 clinical isolates, sodium salt, read-out: Median minimum inhibitory concentration. The protocol:
as §1

The subject of series [3] is Pseudomonas aeruginosa. The series is described as above. In kind it is cell-based. The conditions noted are these: 49 clinical isolates, sodium salt, read-out: Median minimum inhibitory concentration. The protocol:
as §1

The test system of series [4] is Klebsiella pneumoniae. Put plainly: MIC, nutrient broth dilution (Table 2). In kind it is cell-based. The note with it: Klebsiella pneumoniae strain No. 6, sodium salt. The protocol: (§2) Note: Compound (I), Compound (A) and Compound (B) were subjected to the test in the form of the sodium salt. For each test, eight male ICR-SLC strain mice were used at each dose level. MIC was determined by the nutrient broth dilution method. In determination of PD50, subcutaneous treatment was carried out twice, i.e. 1 and 4 hours after infection.

Series [5] relates to Escherichia coli. Put plainly: MIC, nutrient broth dilution (Table 2). The conditions noted are these: Escherichia coli strain NIHJ, sodium salt. It is filed as cell-based. The protocol: as §2
In general terms: In broth dilution the organism is exposed to a series of concentrations in liquid medium.

Series [6] deals with Pseudomonas aeruginosa. In words: MIC, nutrient broth dilution (Table 2). In kind it is cell-based. The protocol:
as §2

The test system of series [7] is Klebsiella pneumoniae. In words: Intraperitoneal infection in mice, median protective dose (Table 2). It is filed as in vivo. The note with it: sc, subcutaneous, 1 and 4 hours after infection, sodium salt, read-out: PD50. The protocol:
as §2

For series [8], the system named is Escherichia coli. The series is described as above. It is filed as in vivo. The conditions noted are these: sc, E. coli strain NIHJ, male ICR-SLC mice, subcutaneous, 1 and 4 hours after infection, sodium salt, read-out: PD50. The protocol: as §2
Series [9] relates to Pseudomonas aeruginosa. The description is as above. In kind it is in vivo. The note with it: sc, subcutaneous, 1 and 4 hours after infection, sodium salt, read-out: PD50. The protocol: as §2
For the next series, the system named is Proteus mirabilis. In words: MIC (Table 3). In kind it is cell-based. The conditions noted are these: Proteus mirabilis strain GN2425; sodium salt. From the text:
The minimum inhibitory concentrations obtained with Compound (I) and Compound (C) against the following organisms representing 6 genera are shown in Table 3.
(§3) Note: Compound (I) and Compound (C) were subjected to the test in the form of the sodium salt.

Series [10] in a line: Urinary excretion rate in rats after intramuscular administration (Table 8). In kind it is in vivo, Wistar-HLA strain rats. The conditions noted are these: rat, urine, im, 20 mg/kg, male rats, intramuscular 20 mg/kg, sodium salt. The protocol: The urinary excretion rates of Compound (I) and Compound (C) following an intramuscular administration of 20 mg/kg in male Wistar-HLA strain rats are shown in Table 8.
as §3

Series [11] concerns Streptococcus faecalis. Put plainly: MIC, nutrient broth dilution (Table 5). It is filed as cell-based. The note with it: Enterococcus faecalis, Streptococcus faecalis strain F10, sodium salt. The protocol:
(§4) The relative activities of Compound (I) and Compound (C) against various intraperitioneal infections in mice evaluated by the minimum inhibitory concentrations and the means median protective doses (subcutaneously administered) are shown in Table 5.
(§5) Note: Compound (I) and Compound (C) were subjected to the test in the form of the sodium salt. For each test, five male ICR-SLC strain mice were used at each dose level. MIC was determined by the nutrient broth dilution method. In determination of PD50, subsutaneous treatment was carried out three times, i.e. 1, 3 and 5 hours after infection.

Series [12] relates to Pseudomonas aeruginosa. In words: MIC, nutrient broth dilution (Table 5). It is filed as cell-based. The note with it: Pseudomonas aeruginosa strain TS, sodium salt. The protocol: as §4, §5
Series [13] concerns Staphylococcus aureus. Put plainly: Intraperitoneal infection in mice, median protective dose (Table 5). In kind it is in vivo. The conditions noted are these: sc, S. aureus strain A24, male ICR-SLC mice, subcutaneous, 1, 3 and 5 hours after infection, sodium salt, read-out: PD50. The protocol: as §4, §5
The test system of series [14] is Klebsiella pneumoniae. The series is described as above. In kind it is in vivo. The note with it: sc, K. pneumoniae strain No. 1, male ICR-SLC mice, subcutaneous, 1, 3 and 5 hours after infection, sodium salt, read-out: PD50. The protocol:
as §4, §5

In series [15] the test system is Streptococcus faecalis. Described as above. In kind it is in vivo. The note with it: Enterococcus faecalis, sc; S. faecalis strain F10; male ICR-SLC mice; subcutaneous, 1, 3 and 5 hours after infection; sodium salt; read-out: PD50. The protocol: as §4, §5
Series [16] has as its system Pseudomonas aeruginosa. Described as above. It is filed as in vivo. The note with it: sc, P. aeruginosa strain TS, male ICR-SLC mice, subcutaneous, 1, 3 and 5 hours after infection, sodium salt, read-out: PD50. The protocol:
as §4, §5

Series [17] can be described thus: Acute toxicity in mice, intraperitoneal (Table 9). The conditions noted are these: mouse, in vivo, ip.
From the text: The acute toxicity of Compound (I) and Compound (C) in ICR strain mice when administered by intraperitoneal route are shown in Table 9.
as §3

Series [18] in a line: Serum level in mice after subcutaneous administration (Table 7). In kind it is in vivo, ICR-SLC strain mice. The note with it: mouse, sc, subcutaneous 50 mg/kg, sodium salt. The protocol:
The peak serum concentrations of Compound (I) and Compound (C) in ICR strain mice following subcutaneous administration at 50 mg/kg are shown in Table 7.
Note: Compound (I) and Compound (C) were subjected to the test in the form of the sodium salt. For the test, three male ICR-SLC strain mice were used. The bioassay was carried out according to the disc method using Bacillus subtilis.

Series [19] deals with Staphylococcus aureus. In words: Median MIC, clinical isolates, agar-plate dilution (Table 4). In kind it is cell-based. The note with it: 37 strains, agar-plate dilution, sodium salt, read-out: Median minimum inhibitory concentration. The protocol:
(§6) Note: Compound (I) and Compound (C) were subjected to the test in the form of the sodium salt. MIC was determined using the agar-plate dilution method.

Series [20] deals with Streptococcus faecalis. The description is as above. The note with it: Enterococcus faecalis, 23 strains, agar-plate dilution, sodium salt, read-out: Median minimum inhibitory concentration. It is filed as cell-based. The protocol:
as §6

Series [21] in a line: Protein-binding rate in human serum (Table 6). It is filed as in vitro ADME. The note with it: human, serum, sodium salt.
From the text: The following data are related to the pharmacokinetic profiles of Compound (I) compared with Compound (C).
as §3

Converted amounts (≈) assume the structure as drawn.

On to `CC1(C)S[C@@H]2[C@H](NC(=O)[C@H](N)c3ccccc3)C(=O)N2[C@H]1C(=O)O` [Ampicillin], for which the anti-Pseudomonas activity entry in the series on Pseudomonas is reported as “does not exert any appreciable anti-Pseudomonas activity”.
Take `CC1(C)S[C@@H]2[C@H](NC(=O)C(C(=O)O)c3ccccc3)C(=O)N2[C@H]1C(=O)O` (stereo partly shown) [Carbenicillin]: the anti-Pseudomonas activity result in the series with Pseudomonas is on record as “not sufficiently strong”.
Regarding `CC1(C)S[C@@H]2[C@H](NC(=O)[C@H](NC(=O)c3cnccc3O)c3ccc(O)cc3)C(=O)N2[C@H]1C(=O)O` [Compound (A), 6-[D-2-(4-hydroxypyridine-3-carbonamido)-2-(p-hydroxyphenyl)acetamido]penicillanic acid, reference compound], the MIC50 in the series on Proteus vulgaris is 115 µg/mL; with Proteus morganii, 50 µg/mL; in the series with Staphylococcus aureus [1] it was 21 µg/mL; in the series on Klebsiella pneumoniae [2], 73 µg/mL; in the series with Escherichia it was 14 µg/mL (≈ 28.8 µM); with Enterobacter aerogenes it was 100 µg/mL. In addition, the MIC50 in the series on Serratia was more than 200 µg/mL; with Pseudomonas aeruginosa [3] it was 5 µg/mL. Moreover, the MIC with Klebsiella pneumoniae [4] was found to be 100 µg/mL; in the series with Escherichia coli [5] it was 12.5 µg/mL; with Pseudomonas aeruginosa [6] (Pseudomonas aeruginosa strain NC-5, sodium salt), 6.25 µg/mL; in the series on Pseudomonas aeruginosa [6] (Pseudomonas aeruginosa strain T, sodium salt) it was 12.5 µg/mL. The ED50 in the series with Klebsiella pneumoniae [7] (K. pneumoniae strain No. 1, male ICR-SLC mice) is 100 mg/kg; in the series with Klebsiella pneumoniae [7] (K. pneumoniae strain No. 6, male ICR-SLC mice), 120 mg/kg; in the series with Klebsiella pneumoniae [7] (K. pneumoniae strain No. 20, male ICR-SLC mice) it was more than 150 mg/kg; in the series on Escherichia coli [8] it was 3 mg/kg; in the series on Pseudomonas aeruginosa [9] (P. aeruginosa strain NC-5, male ICR-SLC mice) it was 60 mg/kg; with Pseudomonas aeruginosa [9] (P. aeruginosa strain T, male ICR-SLC mice), 51 mg/kg.
As to `CC1(C)S[C@@H]2[C@H](NC(=O)[C@H](NC(=O)c3cnc4cccnc4c3O)c3ccc(O)cc3)C(=O)N2[C@H]1C(=O)O` [Compound (C), 6-[D-2-(4-hydroxy-1,5-naphthyridine-3-carbonamido)-2-(p-hydroxyphenyl)acetamido]penicillanic acid, reference compound], the minimum inhibitory concentration (MIC) was 1.56 µg/mL in the series on Proteus mirabilis, 1.56 µg/mL in the series with Streptococcus faecalis [11] and 3.13 µg/mL with Pseudomonas aeruginosa [12]. Also, in series [10] (0-6 hr.), the dose excreted at 6 h was 19.5%. The dose excreted at 24 h was 20% in [10] (0-24 hr.) and 0.5% in series [10] (6-24 hr.). Moreover, the ED50 with Staphylococcus aureus [13] turned out to be 32 mg/kg; in the series with Klebsiella pneumoniae [14] it was 18 mg/kg; in the series on Streptococcus faecalis [15], 6 mg/kg; in the series on Pseudomonas aeruginosa [16] it was 15 mg/kg. This compound registered an LD50 in [17] of 3100 mg/kg. In series [18] (1/2 hr.), the concentration at 0.5 h is 32000 ng/mL. Further, in series [18] (1/4 hr.), the concentration at 0.25 h is 44000 ng/mL. Besides, the concentration at 1 h in series [18] (1 hr.) was found to be 8000 ng/mL. The concentration at 2 h in [18] (2 hr.) stood at 5000 ng/mL. For the same compound, the MIC50 with Staphylococcus aureus [19] was 60 µg/mL; in the series on Streptococcus faecalis [20], 3.8 µg/mL. Further, the fraction unbound is 0.08 in [21] (Ultracentrifugation method) and 0.1 in [21] (Ultrafiltration method).
For the compound `CC1(C)S[C@@H]2[C@H](NC(=O)C(c3ccccc3)S(=O)(=O)O)C(=O)N2[C@H]1C(=O)O` (stereo partly shown) [Sulfocillin], the anti-Pseudomonas activity result in the series with Pseudomonas is reported as “not sufficiently strong”.

Usually MIC stands for the smallest concentration in the dilution series that meets the test's criterion for growth inhibition. In general, LD50 refers to the dose at which mortality reaches 50%. Read a high LD50 as a less toxic substance. A word on the fraction unbound: it is the share of the substance not bound to proteins or other matrix.
